According to US20080260842A1, “PERMEATION ENHANCING COMPOSITIONS FOR ANTICHOLINERGIC AGENTS” (priority 2004, published 2008):
Where two headings read alike, the source gives them in different places. Blank lines part the entries; values can stand above or below the compound they belong to.

Assays:
[1] = Pilot pharmacokinetic study of an oxybutynin gel formulation in healthy volunteers (Example 17); details: Treatment A (60 mg/day gel), 156 h, individual subjects
Experimental: (§1) Subjects were excluded on the basis of any preexisting condition or finding on the prestudy examination that would place them at risk during the study. Written informed consent was obtained from each subject before participating in any study-related procedures after discussion and explanation of the study.
(§2) Treatments were administered according to an open-label, multiple-dose, escalating dose titration pilot pharmacokinetic study and included a transdermal oxybutynin gel. Steady-state conditions were achieved by administering daily doses for 7 days. Subjects participated in 2 study periods during which the test medication (a transdermal gel) was applied once daily. 2 g of the gel (corresponding to a dose of 60 mg of oxybutynin) was applied daily during the first study period (Treatment A), then 1 g (corresponding to a dose of 30 mg of oxybutynin) during the second study period (Treatment B). A wash-out period of 7 days was observed between the two study periods. Both dosages were tested on same subjects. The design allows comparison between different dosages of the same formulation within the subject and removes inter-subject variability.
(§3) The main objective of this study was to assess the pharmacokinetic parameters of an oxybutynin gel formulation, administered in two different doses, administering the product in 8 healthy female volunteers.
(§4) The secondary objective of this study was to record safety parameters such as adverse events, skin tolerance, vital signs, e.g., blood pressure and heart rate.

[2] = Dose-ranging pharmacokinetic study of transdermal oxybutynin gel in healthy volunteers (Example 18); details: after 20 days (steady-state), mean ± SD, N = 16
Experimental: The study was an open-label, randomized, parallel, three-treatment, dose-ranging pharmacokinetic study. […] The subjects were aged 19 to 53 (mean 35) years.
The oxybutynin transdermal gel formulation contained 3% w/w of oxybutynin base in a hydroalcoholic non-occlusive matrix including the unique combination of permeation enhancers of the present invention. Three different doses of the gel were administered topically once a day during 20 consecutive days: treatment A consisted in a daily amount of 1.4 g applied gel, corresponding to 42 mg oxybutynin; treatment B consisted in a daily amount of 2.0 g applied gel, corresponding to 60 mg oxybutynin; and treatment C consisted in a daily amount of 2.8 g applied gel, corresponding to 84 mg oxybutynin.

[3] = female, human, in vivo
Experimental: as §1, §2, §3, §4

[4] = system: detrusor muscle; details: cited from earlier work
[5] = both, human, in vivo
[6] = clinical; details: both, human, in vivo, 84 mg, Tmax median
[7] = Pharmacokinetic study of R/S OXY and DEO enantiomers, transdermal oxybutynin gel (Example 20); type: in vivo, human; details: single-dose topical 84 mg OXY gel, abdominal area, normalized to 84 mg, mean ± SD, N = 10
Experimental: Ten healthy volunteers (Asian Indians, 60% female) aged 18 to 35 (mean 29) years old were treated with 2.8 g of a formulation of the present invention containing 3% w/w of OXY base (84 mg OXY), administered topically as a single dose on the abdomen (700 cm^2).

Compound: CCNCC#CCOC(=O)C(O)(c1ccccc1)C1CCCCC1 (centres unmarked) [N-desethyloxybutynin]
N-desethyloxybutynin concentration [1]: 11.970 ng/L
Cav ([2]; Treatment A: 42 mg oxybutynin daily): 3.0 ± 1.3 ng/mL
Cav ([2]; Treatment B: 60 mg oxybutynin daily): 4.0 ± 2.1 ng/mL
Cav ([2]; Treatment C: 84 mg oxybutynin daily): 7.0 ± 4.0 ng/mL

Treatment A/Treatment B Ratio - Oxybutynin [3]: 1.93
Treatment A/Treatment B Ratio - Oxybutynin ([3]; 0 h): 0
time to reach plasmatic levels of about 1 to 4 ng/ml [5]: about 2 hours
time to reach plasmatic levels of about 2 to 4 ng/ml [5]: less than 4 hours
time to reach plasmatic levels of about 3 to about 4 ng/ml [5]: less than 6 hours
time up to which plasmatic levels of about 1 to 4 ng/ml are sustained [5]: at least 72 hours
time up to which plasmatic levels of about 2 to 4 ng/ml are sustained [5]: at least 48 hours
time up to which plasmatic levels of about 3 to about 4 ng/ml are sustained [5]: at least 36 hours
Tmax [6]: 24 h
Compound: CCN(CC)CC#CCOC(=O)C(O)(c1ccccc1)C1CCCCC1 (centres unmarked) [Oxybutynin]
antispasmodic activity relative to atropine [4]: four to ten times
anticholinergic activity relative to atropine ([4]; detrusor muscle, effect observed in rabbits): one-fifth

Compound: CCNCC#CCOC(=O)[C@](O)(c1ccccc1)C1CCCCC1 [R-DEX]
AUC0-120 [7]: 269.5 ± 132.8 ng·h/mL
Cmax [7]: 6.3 ng/mL

AUC0-120 [7]: 151.1 ± 56.0 ng·h/mL
Cmax [7]: 3.6 ng/mL
Compound: CCN(CC)CC#CCOC(=O)[C@](O)(c1ccccc1)C1CCCCC1 [R-OXY]

Compound: CCNCC#CCOC(=O)[C@@](O)(c1ccccc1)C1CCCCC1 [S-DEX]
AUC0-120 [7]: 285.5 ± 152.9 ng·h/mL
Cmax [7]: 6.9 ± 3.8 ng/mL

AUC0-120 [7]: 246.0 ± 96.7 ng·h/mL
Cmax [7]: 5.8 ± 2.6 ng/mL
Compound: CCN(CC)CC#CCOC(=O)[C@@](O)(c1ccccc1)C1CCCCC1 [S-OXY]
